Ten molecules from ChEMBL document CHEMBL1201862, “PubChem BioAssay data set” (2004) can be followed below.

Some test systems named below: 786-0; A549; CAKI-1; COLO 205; DU-145; HCT-116; HOP-92; LOX IMVI; MDA-N; NCI-H23; NCI-H522; NCI/ADR-RES; OVCAR-3; OVCAR-4; PC-3; SF-295; SK-OV-3; SN12C; UO-31.
Holding throughout (assay): NCI-60 cell line screen, 48 h

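In this assay, cells in 96-well plates receive the compound at five concentrations for 48 hours. Endpoints are linearly interpolated between the surrounding concentrations. Abbreviation: GI50, concentration required for 50% inhibition of growth.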 The source made the active and inactive calls. No stated cut-off is given here; in the data, active = GI50 up to about 1.1 µM and inactive = higher.

Turning to `COc1ccc(/C=C/C(=O)Oc2ccc(/C=C3\CCCCC3=O)cc2)cc1`, the GI50 in the assay with 786-0 was > 100 µM (inactive); with A549, 80.5 µM (inactive); in the assay with CAKI-1, > 100 µM (inactive); in the assay on COLO 205, 19.5 µM (inactive); in the assay with DU-145 it was > 100 µM (inactive); with HCT-116 it was 9.33 µM (inactive). Moreover, the GI50 in the assay on HOP-92 is > 66.1 µM (inactive); with LOX IMVI it was > 100 µM (inactive); in the assay on MDA-N, > 100 µM (inactive); in the assay with NCI-H23, 97.1 µM (inactive); in the assay on NCI-H522 it was > 100 µM (inactive); with NCI/ADR-RES, > 57.4 µM (inactive). For the same molecule, the GI50 was > 100 µM (inactive) in the assay on OVCAR-3; 43.2 µM (inactive) in the assay on OVCAR-4; > 100 µM (inactive) in the assay with PC-3; 18.4 µM (inactive) with SF-295; > 100 µM (inactive) with SK-OV-3; 50.9 µM (inactive) in the assay with SN12C. For the same molecule, the GI50 in the assay with UO-31 was > 100 µM (inactive).
As to `Cc1cn([C@@H]2O[C@H](CO[Si](C)(C)C(C)(C)C)[C@]3(O[C@H]3C(=O)NN)[C@H]2O[Si](C)(C)C(C)(C)C)c(=O)[nH]c1=O`, the GI50 in the assay on 786-0 was 4.06 µM (inactive); with A549, 6.03 µM (inactive); with CAKI-1, 11.6 µM (inactive); in the assay on COLO 205, 2.64 µM (inactive); in the assay on DU-145, 6.31 µM (inactive); with HCT-116, 4.08 µM (inactive). The GI50 in the assay with HOP-92 is 6.24 µM (inactive); in the assay on LOX IMVI, 3.33 µM (inactive); in the assay on MDA-N, 5.78 µM (inactive); with NCI-H23, 14.1 µM (inactive); in the assay on NCI-H522, 2.2 µM (inactive); with NCI/ADR-RES, 15.6 µM (inactive). The GI50 was 3.76 µM (inactive) in the assay with OVCAR-3; 6.4 µM (inactive) in the assay with OVCAR-4; 4.6 µM (inactive) in the assay on PC-3; 7.69 µM (inactive) in the assay on SF-295; 18.1 µM (inactive) in the assay with SK-OV-3; 5.79 µM (inactive) in the assay with SN12C. Also, the GI50 in the assay with UO-31 is 14.2 µM (inactive).
For the molecule `CC1OC(OC2C(OC3CCC4(C)C(CCC5(C)C4CC=C4C6CC(C)(C)CCC6(C(=O)O)CCC45C)C3(C)CO)OCC(O)C2O)C(O)C(O)C1O` (centres undefined), the GI50 in the assay on 786-0 was 30.7 µM (inactive); in the assay on A549, 19.1 µM (inactive); with CAKI-1, 18.5 µM (inactive); in the assay with COLO 205, 20.8 µM (inactive); in the assay with DU-145, 18.9 µM (inactive); in the assay with HCT-116 it was 7.4 µM (inactive). The GI50 in the assay on HOP-92 is 10.1 µM (inactive); with LOX IMVI, 11.1 µM (inactive); with MDA-N, 21.1 µM (inactive); in the assay with NCI-H23, 17.7 µM (inactive); with NCI-H522, 13.3 µM (inactive); in the assay on NCI/ADR-RES, 20.9 µM (inactive). Besides, the GI50 was 27.3 µM (inactive) in the assay on OVCAR-3; 11.8 µM (inactive) with OVCAR-4; 13 µM (inactive) in the assay on PC-3; 15.1 µM (inactive) in the assay with SF-295; 18.1 µM (inactive) in the assay with SK-OV-3; 21.1 µM (inactive) in the assay on SN12C. In the assay with UO-31, the GI50 was 3.66 µM (inactive).
With `CCOc1cc(NC(C)=O)ccc1C(=O)NN1C(=O)C(Cl)C1c1ccccc1` (centres undefined), the GI50 in the assay on 786-0 was 14.6 µM (inactive); with A549, 16.5 µM (inactive); in the assay with CAKI-1, 15.4 µM (inactive); with COLO 205, 14.2 µM (inactive); in the assay on DU-145 it was 17.6 µM (inactive); in the assay with HCT-116, 17.5 µM (inactive). Besides, the GI50 with HOP-92 was 12.9 µM (inactive); with LOX IMVI, 1.37 µM (inactive); with MDA-N, 13.8 µM (inactive); with NCI-H23 it was 14.3 µM (inactive); with NCI-H522 it was 2.24 µM (inactive); with NCI/ADR-RES it was 25.1 µM (inactive). Further, the GI50 with OVCAR-3 was 14.7 µM (inactive); with OVCAR-4, 13.5 µM (inactive); with PC-3, 14 µM (inactive); with SF-295, 20.4 µM (inactive); with SK-OV-3, 16.9 µM (inactive); with SN12C, 13.9 µM (inactive). In the assay with UO-31, the GI50 is 3.31 µM (inactive).
For the molecule `COC(=O)/C=C1\CCCN1CCc1cc2c(cc1CC#N)OCO2`, the GI50 is 52.7 µM (inactive) in the assay on 786-0; > 100 µM (inactive) in the assay with A549; > 100 µM (inactive) in the assay with CAKI-1; 35.2 µM (inactive) in the assay on COLO 205; 80.4 µM (inactive) in the assay with DU-145; 41.2 µM (inactive) with HCT-116. Further, the GI50 was > 100 µM (inactive) in the assay on HOP-92; > 100 µM (inactive) in the assay on LOX IMVI; 18.3 µM (inactive) with MDA-N; 47.2 µM (inactive) in the assay with NCI-H23; > 100 µM (inactive) in the assay with NCI-H522; 69.8 µM (inactive) in the assay on NCI/ADR-RES. The GI50 in the assay with OVCAR-3 is 22.6 µM (inactive); with OVCAR-4, 51.3 µM (inactive); in the assay with PC-3 it was > 100 µM (inactive); with SF-295, 38.5 µM (inactive); in the assay on SK-OV-3, 34.9 µM (inactive); in the assay with SN12C, 50 µM (inactive). Moreover, the GI50 in the assay with UO-31 was 23.8 µM (inactive).
For `COc1cc2c(cc1OC)C1Cc3ccccc3CCN1CC2` (centres undefined), the GI50 in the assay with 786-0 was 50 µM (inactive); in the assay on A549, > 100 µM (inactive); with CAKI-1, > 100 µM (inactive); in the assay on COLO 205, 64.4 µM (inactive); with DU-145 it was > 100 µM (inactive); in the assay with HCT-116 it was 39.1 µM (inactive). Moreover, the GI50 with HOP-92 was 36.1 µM (inactive); with LOX IMVI, > 100 µM (inactive); with MDA-N it was > 100 µM (inactive); with NCI-H23, > 100 µM (inactive); in the assay on NCI-H522 it was > 100 µM (inactive); in the assay on NCI/ADR-RES, > 100 µM (inactive). The GI50 in the assay on OVCAR-3 is > 100 µM (inactive); with OVCAR-4 it was > 100 µM (inactive); with PC-3 it was 62.1 µM (inactive); in the assay with SF-295 it was 81.1 µM (inactive); in the assay with SK-OV-3 it was > 100 µM (inactive); in the assay on SN12C, > 100 µM (inactive). Also, the GI50 in the assay with UO-31 is 27.2 µM (inactive).
On to `Cc1ccc(/N=N/c2c(C)nn(C(=O)CC(=O)Nc3ccc(Cl)cc3)c2C)cc1C`, for which the GI50 in the assay with 786-0 was 53 µM (inactive); with A549 it was > 100 µM (inactive); in the assay with CAKI-1, > 100 µM (inactive); with COLO 205, 90.4 µM (inactive); in the assay with DU-145, > 100 µM (inactive); in the assay with HCT-116, 49.2 µM (inactive). In addition, the GI50 is 12.4 µM (inactive) with HOP-92; 96.8 µM (inactive) in the assay on LOX IMVI; > 100 µM (inactive) in the assay with MDA-N; > 100 µM (inactive) in the assay with NCI-H23; 32.2 µM (inactive) in the assay with NCI-H522; > 100 µM (inactive) in the assay on NCI/ADR-RES. Moreover, the GI50 in the assay with OVCAR-3 is > 100 µM (inactive); in the assay on OVCAR-4, > 100 µM (inactive); in the assay with PC-3, > 100 µM (inactive); in the assay on SF-295, 48.3 µM (inactive); in the assay with SK-OV-3, 16.9 µM (inactive); in the assay on SN12C it was > 100 µM (inactive). For the same molecule, in the assay with UO-31, the GI50 was 37.5 µM (inactive).
Take `Clc1ccc(CSC2=NCCN2)cc1Cl`: the GI50 was 11.6 µM (inactive) in the assay on 786-0; 27 µM (inactive) in the assay on A549; 11.2 µM (inactive) in the assay on CAKI-1; 17.7 µM (inactive) in the assay with COLO 205; 14.7 µM (inactive) in the assay with DU-145; 14.9 µM (inactive) in the assay on HCT-116. Besides, the GI50 in the assay on HOP-92 was 3.3 µM (inactive); in the assay with LOX IMVI, 13.8 µM (inactive); with MDA-N, 11.7 µM (inactive); in the assay with NCI-H23, 15.6 µM (inactive); in the assay with NCI-H522, 4.5 µM (inactive); in the assay with NCI/ADR-RES, 20.1 µM (inactive). Also, the GI50 is 14.1 µM (inactive) in the assay on OVCAR-3; 11.6 µM (inactive) with OVCAR-4; 10.4 µM (inactive) in the assay on PC-3; 36.8 µM (inactive) with SF-295; 24.6 µM (inactive) with SK-OV-3; 15.2 µM (inactive) in the assay on SN12C. In the assay on UO-31, the GI50 is 11.4 µM (inactive).
As for `CCCc1nc(Cl)nc(Cl)c1Cl`, the GI50 in the assay with 786-0 was 0.127 µM (active); in the assay on A549, 2.22 µM (inactive); with CAKI-1 it was 0.251 µM (active); in the assay on COLO 205, 0.232 µM (active); in the assay with DU-145, 2.41 µM (inactive); in the assay on HCT-116 it was 0.259 µM (active). The GI50 is 0.0104 µM (active) in the assay with HOP-92; 0.0865 µM (active) with LOX IMVI; 0.0234 µM (active) in the assay on MDA-N; 0.45 µM (active) in the assay on NCI-H23; 0.374 µM (active) with NCI-H522; 0.32 µM (active) in the assay with NCI/ADR-RES. The GI50 in the assay on OVCAR-3 was 0.129 µM (active); in the assay with OVCAR-4, 0.0871 µM (active); with PC-3, 0.438 µM (active); in the assay with SF-295, 2.33 µM (inactive); in the assay on SK-OV-3, 3.01 µM (inactive); in the assay on SN12C, 0.726 µM (active).
`CCN(CC)C(=O)CCNC(C)Cc1c[nH]c2ccccc12` (centres undefined): the GI50 in the assay with 786-0, in the assay with A549, in the assay on CAKI-1, with COLO 205, in the assay with DU-145 and in the assay on HCT-116 was > 100 µM (inactive) throughout. The GI50 with HOP-92 is 96.8 µM (inactive); with LOX IMVI it was > 100 µM (inactive); in the assay with MDA-N it was > 100 µM (inactive); with NCI-H23 it was > 100 µM (inactive); with NCI-H522, > 100 µM (inactive); in the assay on NCI/ADR-RES, > 100 µM (inactive). For the same molecule, the GI50 in the assay on OVCAR-3, in the assay with OVCAR-4, with PC-3, with SF-295, in the assay on SK-OV-3 and with SN12C was > 100 µM (inactive) each time. In addition, the GI50 in the assay on UO-31 was > 100 µM (inactive).
